Results published in PubChem BioAssay (NCI).
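48-hour exposure; five concentrations; linearly interpolated endpoints. TGI is the concentration that stops growth completely.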

Tests used:
Assay in all cases: NCI tumour cell line growth inhibition, 48 h
HS 578T breast = test system: HS 578T breast
HOP-62 NSCLC = test system: HOP-62 NSCLC
OVCAR-4 ovarian = test system: OVCAR-4 ovarian
NCI-H226 lung = test system: NCI-H226 lung
SK-MEL-28 melanoma = test system: SK-MEL-28 melanoma
K-562 leukemia = test system: K-562 leukemia
SW-620 colon = test system: SW-620 colon
NCI/ADR-RES ovarian = test system: NCI/ADR-RES ovarian
OVCAR-3 ovarian = test system: OVCAR-3 ovarian
SNB-19 CNS = test system: SNB-19 CNS
MCF7 breast = test system: MCF7 breast
MDA-MB-231 breast = test system: MDA-MB-231 breast
UACC-62 melanoma = test system: UACC-62 melanoma
SN12C renal = test system: SN12C renal
M14 melanoma = test system: M14 melanoma
SK-OV-3 ovarian = test system: SK-OV-3 ovarian
ACHN renal = test system: ACHN renal
BT-549 breast = test system: BT-549 breast
COLO 205 colon = test system: COLO 205 colon
SF-268 CNS = test system: SF-268 CNS
SNB-75 CNS = test system: SNB-75 CNS
DU-145 prostate = test system: DU-145 prostate
HL-60(TB) leukemia = test system: HL-60(TB) leukemia
HCT-15 colon = test system: HCT-15 colon
NCI-H460 lung = test system: NCI-H460 lung
MDA-MB-435 = test system: MDA-MB-435
T-47D breast = test system: T-47D breast
MALME-3M melanoma = test system: MALME-3M melanoma
HCT-116 colon = test system: HCT-116 colon
CAKI-1 renal = test system: CAKI-1 renal
RXF 393 renal = test system: RXF 393 renal
PC-3 prostate = test system: PC-3 prostate
SR leukemia = test system: SR leukemia
A498 renal = test system: A498 renal
SF-295 CNS = test system: SF-295 CNS
SK-MEL-5 melanoma = test system: SK-MEL-5 melanoma
TK-10 renal = test system: TK-10 renal
HT29 colon = test system: HT29 colon
SF-539 CNS = test system: SF-539 CNS
NCI-H522 lung = test system: NCI-H522 lung
UACC-257 melanoma = test system: UACC-257 melanoma
786-0 renal = test system: 786-0 renal
UO-31 renal = test system: UO-31 renal
RPMI-8226 leukemia = test system: RPMI-8226 leukemia
OVCAR-8 ovarian = test system: OVCAR-8 ovarian
KM12 colon = test system: KM12 colon
SK-MEL-2 melanoma = test system: SK-MEL-2 melanoma
HOP-92 NSCLC = test system: HOP-92 NSCLC
U251 CNS = test system: U251 CNS
CCRF-CEM leukemia = test system: CCRF-CEM leukemia
EKVX NSCLC = test system: EKVX NSCLC
IGROV1 ovarian = test system: IGROV1 ovarian
A549 NSCLC = test system: A549 NSCLC
LOX IMVI melanoma = test system: LOX IMVI melanoma
OVCAR-5 ovarian = test system: OVCAR-5 ovarian
NCI-H23 lung = test system: NCI-H23 lung
HCC-2998 colon = test system: HCC-2998 colon
MOLT-4 leukemia = test system: MOLT-4 leukemia

`O=C(O)CNc1ccc2c(c1)Cc1cc(Br)ccc1-2` was tested, and the TGI (HS 578T breast) was 36.4 µM, the TGI (HOP-62 NSCLC) was > 67.8 µM and the TGI (OVCAR-4 ovarian) was 87.2 µM. For the same compound, the TGI (NCI-H226 lung) was > 79.3 µM, the TGI (SK-MEL-28 melanoma) was > 100 µM and the TGI (K-562 leukemia) was > 40.9 µM. For the same compound, the TGI (SW-620 colon) was > 96.8 µM, the TGI (NCI/ADR-RES ovarian) was > 63.3 µM and the TGI (OVCAR-3 ovarian) was > 100 µM. For the same compound, the TGI (SNB-19 CNS) was > 84.6 µM, the TGI (MCF7 breast) was > 100 µM and the TGI (MDA-MB-231 breast) was > 68.9 µM. For the same compound, the TGI (UACC-62 melanoma) was 76.4 µM, the TGI (SN12C renal) was > 69.4 µM and the TGI (M14 melanoma) was > 77.1 µM. For the same compound, the TGI (SK-OV-3 ovarian) was 98.5 µM, the TGI (ACHN renal) was > 100 µM and the TGI (BT-549 breast) was 58.6 µM. The TGI (COLO 205 colon) was > 71 µM, the TGI (SF-268 CNS) was > 100 µM and the TGI (SNB-75 CNS) was > 89.8 µM. For the same compound, the TGI (DU-145 prostate) was 82.4 µM, the TGI (HL-60(TB) leukemia) was > 100 µM and the TGI (HCT-15 colon) was > 100 µM. The TGI (NCI-H460 lung) was > 60.3 µM, the TGI (MDA-MB-435) was 45 µM and the TGI (T-47D breast) was > 100 µM. For the same compound, the TGI (MALME-3M melanoma) was > 67.9 µM, the TGI (HCT-116 colon) was > 49.1 µM and the TGI (CAKI-1 renal) was 98.4 µM. The TGI (RXF 393 renal) was > 94.6 µM, the TGI (PC-3 prostate) was > 100 µM and the TGI (SR leukemia) was 1.31 µM. It also gave a TGI (A498 renal) of 85.8 µM, a TGI (SF-295 CNS) of 97 µM and a TGI (SK-MEL-5 melanoma) of 25.8 µM. The TGI (TK-10 renal) was > 84.6 µM, the TGI (HT29 colon) was 97.4 µM and the TGI (SF-539 CNS) was 58.4 µM. The TGI (NCI-H522 lung) was 56.8 µM, the TGI (UACC-257 melanoma) was 72.7 µM and the TGI (786-0 renal) was > 84.5 µM. For the same compound, the TGI (UO-31 renal) was > 100 µM, the TGI (RPMI-8226 leukemia) was > 95.5 µM and the TGI (OVCAR-8 ovarian) was > 100 µM. The TGI (KM12 colon) was 50.7 µM, the TGI (SK-MEL-2 melanoma) was > 79 µM and the TGI (HOP-92 NSCLC) was > 90.7 µM. The TGI (U251 CNS) was 97 µM, the TGI (CCRF-CEM leukemia) was > 100 µM and the TGI (EKVX NSCLC) was 49.7 µM. The TGI (IGROV1 ovarian) was > 100 µM, the TGI (A549 NSCLC) was > 81.3 µM and the TGI (LOX IMVI melanoma) was > 100 µM. The TGI (OVCAR-5 ovarian) was > 73.1 µM and the TGI (NCI-H23 lung) was 49.3 µM.
In the case of `CN(C)C(=O)C(F)(F)C(c1ccccc1)C1C(=O)N(C)C(=O)N(C)C1=O` (stereo not given), the TGI (HOP-62 NSCLC) is reported as > 100 µM, the TGI (OVCAR-4 ovarian) is reported as > 100 µM and the TGI (NCI-H226 lung) is reported as > 100 µM. The TGI (SK-MEL-28 melanoma) was > 100 µM, the TGI (K-562 leukemia) was > 100 µM and the TGI (SW-620 colon) was > 100 µM. The TGI (NCI/ADR-RES ovarian) was > 100 µM, the TGI (OVCAR-3 ovarian) was > 100 µM and the TGI (SNB-19 CNS) was > 100 µM. The TGI (MCF7 breast) was > 100 µM, the TGI (MDA-MB-231 breast) was > 100 µM and the TGI (UACC-62 melanoma) was > 100 µM. The TGI (M14 melanoma) was > 100 µM, the TGI (SK-OV-3 ovarian) was > 100 µM and the TGI (ACHN renal) was > 100 µM. The TGI (BT-549 breast) was > 100 µM, the TGI (COLO 205 colon) was > 100 µM and the TGI (SF-268 CNS) was > 100 µM. The TGI (SNB-75 CNS) was > 100 µM, the TGI (HCC-2998 colon) was > 100 µM and the TGI (DU-145 prostate) was > 100 µM. For the same compound, the TGI (HCT-15 colon) was > 100 µM, the TGI (NCI-H460 lung) was > 100 µM and the TGI (MDA-MB-435) was > 100 µM. The TGI (T-47D breast) was > 100 µM, the TGI (HCT-116 colon) was > 100 µM and the TGI (CAKI-1 renal) was > 100 µM. For the same compound, the TGI (RXF 393 renal) was > 100 µM, the TGI (PC-3 prostate) was > 100 µM and the TGI (A498 renal) was > 100 µM. For the same compound, the TGI (SF-295 CNS) was > 100 µM, the TGI (SK-MEL-5 melanoma) was > 100 µM and the TGI (MOLT-4 leukemia) was > 100 µM. The TGI (TK-10 renal) was > 100 µM, the TGI (UACC-257 melanoma) was > 100 µM and the TGI (786-0 renal) was > 100 µM. For the same compound, the TGI (UO-31 renal) was > 100 µM, the TGI (RPMI-8226 leukemia) was > 100 µM and the TGI (OVCAR-8 ovarian) was > 100 µM. The TGI (KM12 colon) was > 100 µM, the TGI (SK-MEL-2 melanoma) was > 100 µM and the TGI (HOP-92 NSCLC) was > 100 µM. The TGI (U251 CNS) was > 100 µM, the TGI (CCRF-CEM leukemia) was > 100 µM and the TGI (EKVX NSCLC) was > 100 µM. The TGI (A549 NSCLC) was > 100 µM, the TGI (LOX IMVI melanoma) was > 100 µM and the TGI (OVCAR-5 ovarian) was > 100 µM. The TGI (NCI-H23 lung) was > 100 µM.
